Measured values as given in PubChem BioAssay AID2060342 (Molecular Pharmacology Branch, DTP, NCI, 2025).
“And” between values parts separate entries of the source, which are not always exact repeats. Equal values may be shown once.

Test system: 171881-019-R-J1-PDC multicell spheroid viability
Assay: Anticancer human tumor 171881-019-R-J1-PDC patient-derived invasive breast carcinoma cell line growth inhibition [IpAb]
Conditions: for viability, T/C: stronger effect = lower value
Excerpt: Combinatorial screen of targeted agents with ipatasertib and abemaciclib in multi-cell type tumor spheroids
A high-throughput screen of multi-cell type tumor spheroids was designed to identify active combinations of targeted small molecules and ipatasertib or abemaciclib. Complex spheroids include a stromal component modeled by human endothelial cells (HUVEC) and fibroblasts modeled by human mesenchymal stem cells (MSCs). The concentration ranges selected for each drug and investigational agent were based upon clinically achievable concentrations if the clinical Cmax of the agent was known.
Compounds. The drugs and investigational agents: ipatasertib (NSC767898), abemaciclib(NSC768073), selumetinib (NSC741078), trametinib (758246), adavosertib (NSC754352), everolimus (NSC733504), sapanisertib (NSC764658), vemurafenib (NSC761431), venetoclax (NSC766270), copanlisib (NSC809693), apelisib (NSC765974), palbociblib (NSC758247), vemurafenib (NSC761431), dabrafenib (NSC764134), ravoxertinib (NSC781343), BMS-387032 (NSC767048), sotorasib (NSC818433), talazoparib (NSC767125) and afursertib (NSC778305), were obtained from the National Cancer Institute (NCI) Developmental Therapeutics Program Chemical Repository. The FDA-approved anticancer drug set is available from the NCI Developmental Therapeutics Program. […] The stock solutions were prepared in dimethyl sulfoxide (DMSO, Sigma-Aldrich, St. Louis, MO, cat. D2650) at 800-fold the tested concentration and stored at -70 degrees C prior to their use. All drugs and investigational agents were tested over a range starting from a high concentration at or near the clinical Cmax and decreasing in half-log increments. If the clinical Cmax for an agent had not been determined, the highest concentration tested was 10 microM.
NCI60 Cell Culture. NCI60 cell lines were obtained from the NCI Developmental Therapeutics Program Tumor Repository. For each lot of cells, the Repository performed Applied Biosystems AmpFLSTR Identifiler testing with PCR amplification to confirm consistency with the published Identifier STR profile for each cell line. Cells were kept in continuous culture for no more than 20 passages. The optimal seeding densities for each of the cell lines at each time point assessed were determined prior to performing the concentration response studies. Briefly, the NCI60 human tumor lines were grown as monolayers in RPMI 1640 medium supplemented with 10% FBS and 2 mmol/L L-glutamine.
An additional 9 lines were from the NCI60 cell line panel including MDA-MB-231 breast carcinoma, MDA-MB-468 breast carcinoma, MCF7 breast carcinoma, Hs578T breast carcinoma, MALME-3M melanoma, SK-MEL-2 melanoma, SK-OV-3 ovarian carcinoma, DU-145 prostate carcinoma, PC-3 prostate carcinoma, all cell lines along with major genetic alterations are listed on Table 2. Pooled donor human umbilical vein endothelial cells (HUVEC, Lonza, cat. CC-2519) and human mesenchymal stem cells (hMSC, Lonza, cat. PT-2501) were purchased from Lonza (Walkersville, MD).
PDMR cell lines were grown in complete medium (DC medium): Dulbecco's modified Eagle's medium (DMEM)/F12 supplemented with 5% fetal bovine serum (FBS), 2 mM L-glutamine, 100 U/mL penicillin and 100 µg/ml streptomycin, 0.4 µg/ml hydrocortisone, 10 ng/ml epidermal growth factor (EGF) recombinant human protein, 24 µg/mL adenine, and 0.1 mg/mL primocin. During culture from frozen stock vials, PDMR cells were cultured in the same medium containing 10 µM Y-27632 (see Table 3). The PDCs were cultured in complete DMEM/F12 media without 10 microM Y-27632 dihydrochloride for at least two passages prior to the screen. The pooled donor HUVEC and hMSC were cultured in endothelial cell growth medium 2 (PromoCell, Heidelberg, Germany, cat. C-22011) and mesenchymal stem cell growth medium 2 (PromoCell, cat. C-28009), respectively. For all experiments, HUVEC and hMSC were used at passages </=5.
[…]

[1] = compound alone, run of 05/18/2021
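Note: spheroids exposed to the agents for seven days before readout.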

SMILES	IC50 (curve of compound)	viability, T/C (compound 0.0316 µM)	viability, T/C (compound 0.1 µM)	viability, T/C (compound 0.316 µM)	viability, T/C (compound 1 µM)	viability, T/C (compound 3.16 µM)	viability, T/C (compound 10 µM)	viability, T/C (compound 0.01 µM)	further results
CC(=O)c1c(C)c2cnc(Nc3ccc(N4CCNCC4)cn3)nc2n(C2CCCC2)c1=O	> 300 nM	–	–	–	–	–	–	–	viability, T/C (compound 0.000949 µM): 103% and 97.8%; viability, T/C (compound 0.003 µM): 92.6% and 92.2%; viability, T/C (compound 0.00949 µM): 102% and 103%; viability, T/C (compound 0.03 µM): 99.4% and 94%; viability, T/C (compound 0.0949 µM): 105% and 96.1%; viability, T/C (compound 0.3 µM): 115% and 105%
CC(C)(C)c1cnc(CSc2cnc(NC(=O)C3CCNCC3)s2)o1	202 nM and 176 nM	–	–	–	–	–	–	–	viability, T/C (compound 0.00949 µM): 96% and 96.9%; viability, T/C (compound 0.03 µM): 109% and 96.1%; viability, T/C (compound 0.0949 µM): 116% and 119%; viability, T/C (compound 0.3 µM): 20.1% and 3.63%; viability, T/C (compound 0.949 µM): 0.52% and 0.41%; viability, T/C (compound 3 µM): 0.65% and 0.81%
CC(C)NCC(C(=O)N1CCN(c2ncnc3c2C(C)CC3O)CC1)c1ccc(Cl)cc1 (stereo not given)	–	–	–	–	27.9% [middle of 13 runs]	11.2% [middle of 13 runs]	6.7% [middle of 12 runs]	–	IC50 [1]: 618 nM [middle of 13 runs]
CC(C)n1nc(-c2ccc3oc(N)nc3c2)c2c(N)ncnc21	6.27 nM and 4.58 nM	4.54% and 3.87%	2.72% and 2.73%	–	–	–	–	28.1% and 18.6%	viability, T/C (compound 0.000316 µM): 109% and 103%; viability, T/C (compound 0.001 µM): 114% and 106%; viability, T/C (compound 0.00316 µM): 82.1% and 64%
CC1(C)CCC(CN2CCN(c3ccc(C(=O)NS(=O)(=O)c4ccc(NCC5CCOCC5)c([N+](=O)[O-])c4)c(Oc4cnc5[nH]ccc5c4)c3)CC2)=C(c2ccc(Cl)cc2)C1	6280 nM and 5550 nM	107% and 93.6%	102% and 84.1%	93.8% and 78.3%	92.5% and 66.3%	89.8% and 87.8%	23.9% and 16.5%	–	–
CCCS(=O)(=O)Nc1ccc(F)c(C(=O)c2c[nH]c3ncc(-c4ccc(Cl)cc4)cc23)c1F	> 10000 nM	111% and 90.2%	95.2% and 83%	86.9% and 93.1%	90.1% and 80.4%	78.3% and 72.6%	76.2% and 87.7%	–	–
CCN1CCN(Cc2ccc(Nc3ncc(F)c(-c4cc(F)c5nc(C)n(C(C)C)c5c4)n3)nc2)CC1	–	105% [middle of 13 runs]	116% [middle of 13 runs]	–	149% [middle of 13 runs]	–	–	91.6% [middle of 13 runs]	IC50 [1]: > 1000 nM
COc1c(OCCCN2CCOCC2)ccc2c3n(c(=NC(=O)c4cnc(N)nc4)nc12)CCN3	14.6 nM and 20.2 nM	17.4% and 33.4%	4.32% and 7.03%	1% and 1.49%	1.51% and 1.79%	–	–	65.8% and 77.7%	viability, T/C (compound 0.00316 µM): 109% and 115%

Further lines, with some results ahead:

IC50 (curve of compound)	SMILES	viability, T/C (compound 0.0316 µM)	viability, T/C (compound 0.1 µM)	viability, T/C (compound 0.316 µM)	viability, T/C (compound 1 µM)	viability, T/C (compound 3.16 µM)	viability, T/C (compound 10 µM)	viability, T/C (compound 0.01 µM)	further results
7470 nM and 6740 nM	C=CC(=O)N1CCN(c2nc(=O)n(-c3c(C)ccnc3C(C)C)c3nc(-c4c(O)cccc4F)c(F)cc23)C(C)C1 (stereo not given)	98.7% and 101%	92.3% and 95.8%	99% and 106%	94.1% and 95.3%	93.6% and 84.7%	35.2% and 31.8%	–	–
768 nM and 786 nM	C=CCn1c(=O)c2cnc(Nc3ccc(N4CCN(C)CC4)cc3)nc2n1-c1cccc(C(C)(C)O)n1	89.9% and 111%	106% and 111%	104% and 133%	35.1% and 43.7%	28.2% and 27.2%	27.9% and 24.9%	–	–
